Data as given in patent US20230081529A1 (CBSBIOSCIENCE CO., LTD, priority 2020, published 2023).
Where two headings read alike, the source gives them in different places.

Tests used:
[1] = test system: hepatocellular carcinoma (HCC) patients; test: Sorafenib treatment of 73 HCC patients: tumor response (mRECIST) and Kaplan-Meier survival; assay type: in vivo, human
Excerpt: This study included 73 histological confirmed HCC patients. […] All tissues were obtained by needle biopsy. The patients were from Ajou Medical Center (AMC). The protocol of this study was approved by the Institutional Review Boards of Ajou Medical Center (AMC).
From a DCR perspective, patients with complete response (CR), partial response (PR) and stable disease (SD) were considered as responders whereas those with progressive disease (PD) were judged as non-responders.
Relationship between treatment response and clinicopathologic variables was evaluated using Chi square tests or Fishers exact tests. Gene expression data were tested for normality with the Shapiro-Wilk test. […] Receiver operating characteristic (ROC) curve analysis was used to determine accuracy of threshold values classifying tumor responders and non-responders using gene signature. Kaplan-Meier survival (KM) curves were calculated using death as end point in overall survival (OS) and using death and progression disease as end point in progression free survival (PFS). The difference in KM curves was examined by log-rank test and the difference in hazard ratio was examined by Cox regression analysis. […] Significance was set at P<0.05 (two-tailed). All statistics were performed in R version 3.3.3 (R Development Core Team, https:/www.r-project.org/).

[2] = test system: hepatocellular carcinoma (HCC) patients; conditions: systemic first-line therapy without predictive biomarkers; cited from earlier work
[3] = entire patients treated with sorafenib
[4] = predicted good responders (8-gene signature)
[5] = predicted poor responders (8-gene signature)

SMILES: CNC(=O)c1cc(Oc2ccc(NC(=O)Nc3ccc(Cl)c(C(F)(F)F)c3)cc2)ccn1 [sorafenib]
- Median overall survival [1, 3]: 11.3 months
- Median progression-free survival [1, 3]: 2.9 months
- Median time to progression [1, 3]: 2.9 months
- disease control rate ([1]; entire patients, before selection with the 8-gene signature): 28.77%
- Tumor response: Progressive disease, number of patients ([1]; non-responders (n = 52)): 52
- Tumor response: Progressive disease, share of group ([1]; non-responders (n = 52)): 100.0%
- number of non-responders (PD) ([1]; of 73 patients treated with sorafenib): 52
- disease control rate ([1]; patients selected with the 8-gene signature): 85.71%
- Median progression-free survival [1, 4]: 5.8 months
- Median time to progression [1, 4]: 5.8 months
- Median overall survival [1, 5]: 6.7 months
- Median progression-free survival [1, 5]: 2.8 months
- Median time to progression [1, 5]: 2.8 months
- Tumor response: Complete response, number of patients ([1]; responders (n = 21)): 2
- Tumor response: Complete response, share of group ([1]; responders (n = 21)): 9.5%
- Tumor response: Partial response, number of patients ([1]; responders (n = 21)): 9
- Tumor response: Partial response, share of group ([1]; responders (n = 21)): 42.9%
- Tumor response: Stable disease, number of patients ([1]; responders (n = 21)): 10
- Tumor response: Stable disease, share of group ([1]; responders (n = 21)): 47.6%
- Median overall survival [2]: 10.7 months
- objective response rates [2]: 2%
